Reference: ChEMBL document CHEMBL1909046, “DrugMatrix in vitro pharmacology data”

What was measured:
[1] = biological target: T1, Type-2 angiotensin II receptor (Homo sapiens, UniProt P50052); type: cell-based; settings: cho-k1; note: in other assays of this panel Not Active means under 50% inhibition at 10 µM
T1 sequence (P50052 whole entry): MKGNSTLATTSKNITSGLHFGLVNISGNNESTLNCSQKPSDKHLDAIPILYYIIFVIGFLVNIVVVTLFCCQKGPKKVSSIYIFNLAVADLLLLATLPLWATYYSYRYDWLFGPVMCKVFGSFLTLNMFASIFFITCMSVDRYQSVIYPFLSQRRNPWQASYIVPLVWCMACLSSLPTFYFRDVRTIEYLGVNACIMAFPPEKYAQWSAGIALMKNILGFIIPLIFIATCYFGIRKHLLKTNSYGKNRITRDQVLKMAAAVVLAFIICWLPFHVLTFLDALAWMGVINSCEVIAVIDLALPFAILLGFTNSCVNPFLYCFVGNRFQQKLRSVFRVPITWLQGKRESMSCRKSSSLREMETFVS

[2] = DRUGMATRIX: Atrial Natriuretic Factor (ANF) radioligand binding (ligand: [125I] ANF (rat)); type: cell membranes, Cavia porcellus, Dunkin-Hartley, Adrenal gland, Membrane; settings: Not Active = under 50% inhibition at 10 µM
[3] = biological target: T2, 3-hydroxy-3-methylglutaryl-coenzyme A reductase (Homo sapiens, UniProt P04035); design: species or system Escherichia coli;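 note: enzyme inhibition assay of HMG-CoA reductase using radiolabeled [14C]HMG-CoA as substrate; in other assays of this panel Not Active means under 50% inhibition at 10 µM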
T2 sequence (P04035 whole entry): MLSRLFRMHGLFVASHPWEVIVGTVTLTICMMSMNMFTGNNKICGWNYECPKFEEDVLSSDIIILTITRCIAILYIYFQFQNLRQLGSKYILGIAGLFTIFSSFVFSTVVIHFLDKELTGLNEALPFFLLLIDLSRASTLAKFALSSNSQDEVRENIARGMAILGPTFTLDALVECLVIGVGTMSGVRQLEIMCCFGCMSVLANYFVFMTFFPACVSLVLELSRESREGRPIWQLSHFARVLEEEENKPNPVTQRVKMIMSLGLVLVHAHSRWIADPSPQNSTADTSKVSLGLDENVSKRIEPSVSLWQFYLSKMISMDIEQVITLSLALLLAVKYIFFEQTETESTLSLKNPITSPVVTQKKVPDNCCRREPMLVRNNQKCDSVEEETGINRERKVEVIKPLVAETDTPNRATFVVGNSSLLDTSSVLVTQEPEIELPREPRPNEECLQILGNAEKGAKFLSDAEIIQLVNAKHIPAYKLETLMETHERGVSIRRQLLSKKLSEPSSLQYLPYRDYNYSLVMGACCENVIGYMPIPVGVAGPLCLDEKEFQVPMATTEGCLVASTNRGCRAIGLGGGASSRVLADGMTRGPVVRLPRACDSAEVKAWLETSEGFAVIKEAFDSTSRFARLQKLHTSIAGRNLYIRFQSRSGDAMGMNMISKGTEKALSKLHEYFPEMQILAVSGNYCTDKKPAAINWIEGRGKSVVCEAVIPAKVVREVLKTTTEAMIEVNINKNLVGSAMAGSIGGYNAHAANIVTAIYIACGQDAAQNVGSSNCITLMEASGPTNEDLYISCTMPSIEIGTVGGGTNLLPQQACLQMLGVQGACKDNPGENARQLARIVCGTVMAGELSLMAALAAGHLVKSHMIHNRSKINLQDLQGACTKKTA

[4] = DRUGMATRIX: Interleukin IL-1 radioligand binding (ligand: [125I] interleukin 1beta); type: cell membranes, Membrane; settings: nih3t3; Not Active = under 50% inhibition at 10 µM
[5] = DRUGMATRIX: Leukotriene, BLT (LTB4) radioligand binding (ligand: [3H]LTB4); type: cell membranes, Membrane; settings: u-937; Not Active = under 50% inhibition at 10 µM
[6] = DRUGMATRIX: Nicotinic Acetylcholine radioligand binding (ligand: [125I] Epibatidine); type: cell membranes, Membrane; settings: imr-32; Not Active = under 50% inhibition at 10 µM
[7] = biological target: Kappa-type opioid receptor (Homo sapiens, UniProt P41145); assay: DRUGMATRIX: Opiate kappa (OP2, KOP) radioligand binding (ligand: [3H] Diprenorphine); type: cell membranes, HEK293, Membrane; settings: hek293; Not Active = under 50% inhibition at 10 µM
Sequence of Kappa-type opioid receptor (P41145 whole entry): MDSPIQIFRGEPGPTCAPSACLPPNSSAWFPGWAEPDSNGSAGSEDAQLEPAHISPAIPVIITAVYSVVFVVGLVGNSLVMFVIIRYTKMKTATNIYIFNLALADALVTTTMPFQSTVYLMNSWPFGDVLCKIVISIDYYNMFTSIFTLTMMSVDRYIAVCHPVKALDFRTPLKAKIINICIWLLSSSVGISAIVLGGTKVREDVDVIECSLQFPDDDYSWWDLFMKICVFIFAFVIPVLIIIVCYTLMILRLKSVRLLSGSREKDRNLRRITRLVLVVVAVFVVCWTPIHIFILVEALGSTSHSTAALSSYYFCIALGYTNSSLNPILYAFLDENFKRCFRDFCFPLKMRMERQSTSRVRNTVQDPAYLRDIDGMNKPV

Interstitial collagenase = biological target: T3, Interstitial collagenase (Homo sapiens, UniProt P03956); assay: biochemical; type: tissue-based, Rheumatoid synovial fibroblasts;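 note: MMP-1 enzyme inhibition assay using a peptide substrate; in other assays of this panel Not Active means under 50% inhibition at 10 µM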
T3 sequence (P03956 whole entry): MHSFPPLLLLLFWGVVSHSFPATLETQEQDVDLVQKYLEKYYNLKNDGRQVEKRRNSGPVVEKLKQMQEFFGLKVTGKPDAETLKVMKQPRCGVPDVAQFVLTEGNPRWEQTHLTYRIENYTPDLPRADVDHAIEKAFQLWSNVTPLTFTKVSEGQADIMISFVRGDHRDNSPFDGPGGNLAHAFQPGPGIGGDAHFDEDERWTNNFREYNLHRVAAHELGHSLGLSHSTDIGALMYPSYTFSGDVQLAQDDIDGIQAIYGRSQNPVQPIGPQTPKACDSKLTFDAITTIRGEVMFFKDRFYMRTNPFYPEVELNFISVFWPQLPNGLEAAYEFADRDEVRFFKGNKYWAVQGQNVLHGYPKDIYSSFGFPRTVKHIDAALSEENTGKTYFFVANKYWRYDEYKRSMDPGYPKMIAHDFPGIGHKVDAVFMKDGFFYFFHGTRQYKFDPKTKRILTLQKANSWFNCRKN

With COc1ccc2c(c1)c(CC(=O)O)c(C)n2C(=O)c1ccc(Cl)cc1 [INDOMETHACIN] the IC50 [1] was “Not Active”, the IC50 [2] was “Not Active” and the Ki [2] was “Not Active”. The IC50 [3] was “Not Active”, the IC50 [4] was “Not Active” and the Ki [4] was “Not Active”. The IC50 [5] was “Not Active”, the Ki [5] was “Not Active” and the IC50 [6] was “Not Active”. For the same compound, the Ki [6] was “Not Active”, the IC50 [7] was “Not Active” and the IC50 (Interstitial collagenase) was “Not Active”.
In the case of CCc1c2c(nc3ccc(OC(=O)N4CCC(N5CCCCC5)CC4)cc13)-c1cc3c(c(=O)n1C2)COC(=O)[C@]3(O)CC [IRINOTECAN], the IC50 [1] is reported as “Not Active”, the IC50 [2] is reported as “Not Active” and the Ki [2] is reported as “Not Active”. The IC50 [3] was “Not Active”, the IC50 [4] was “Not Active” and the Ki [4] was “Not Active”. For the same compound, the IC50 [5] was “Not Active”, the Ki [5] was “Not Active” and the IC50 [6] was “Not Active”. The Ki [6] was “Not Active”, the IC50 [7] was “Not Active” and the IC50 (Interstitial collagenase; read-out: IC50) was 6.06 µM.
With CC(C(=O)O)c1cccc(C(=O)c2ccccc2)c1 (stereo not drawn) [KETOPROFEN] the IC50 [1] was “Not Active”, the IC50 [2] was “Not Active” and the Ki [2] was “Not Active”. For the same compound, the IC50 [3] was “Not Active”, the IC50 [4] was “Not Active” and the Ki [4] was “Not Active”. The IC50 [5] was “Not Active”, the Ki [5] was “Not Active” and the IC50 [6] was “Not Active”. The Ki [6] was “Not Active”, the IC50 [7] was “Not Active” and the IC50 (Interstitial collagenase) was “Not Active”.
With Nc1ccn([C@@H]2CS[C@H](CO)O2)c(=O)n1 [LAMIVUDINE] the IC50 [1] was “Not Active”, the IC50 [2] was “Not Active” and the Ki [2] was “Not Active”. The IC50 [3] was “Not Active”, the IC50 [4] was “Not Active” and the Ki [4] was “Not Active”. For the same compound, the IC50 [5] was “Not Active”, the Ki [5] was “Not Active” and the IC50 [6] was “Not Active”. For the same compound, the Ki [6] was “Not Active”, the IC50 [7] was “Not Active” and the IC50 (Interstitial collagenase) was “Not Active”.
For O=S(=O)([O-])CCS.[Na+] [MESNA], the IC50 [1] was “Not Active”, the IC50 [2] was “Not Active” and the Ki [2] was “Not Active”. The IC50 [3] was “Not Active”, the IC50 [4] was “Not Active” and the Ki [4] was “Not Active”. For the same compound, the IC50 [5] was “Not Active”, the Ki [5] was “Not Active” and the IC50 [6] was “Not Active”. For the same compound, the Ki [6] was “Not Active”, the IC50 [7] was “Not Active” and the IC50 (Interstitial collagenase) was “Not Active”.
For C#C[C@]1(O)CC[C@H]2[C@@H]3CCc4cc(OC)ccc4[C@H]3CC[C@@]21C [MESTRANOL], the IC50 [1] was “Not Active”, the IC50 [2] was “Not Active” and the Ki [2] was “Not Active”. The IC50 [3] was “Not Active”, the IC50 [4] was “Not Active” and the Ki [4] was “Not Active”. The IC50 [5] was “Not Active”, the Ki [5] was “Not Active” and the IC50 [6] was “Not Active”. The Ki [6] was “Not Active”, the IC50 [7] was “Not Active” and the IC50 (Interstitial collagenase) was “Not Active”.
In the case of CC(=O)Nc1cccc(O)c1 [METACETAMOL], the IC50 [1] is reported as “Not Active”, the IC50 [2] is reported as “Not Active” and the Ki [2] is reported as “Not Active”. For the same compound, the IC50 [3] was “Not Active”, the IC50 [4] was “Not Active” and the Ki [4] was “Not Active”. The IC50 [5] was “Not Active”, the Ki [5] was “Not Active” and the IC50 [6] was “Not Active”. For the same compound, the Ki [6] was “Not Active”, the IC50 [7] was “Not Active” and the IC50 (Interstitial collagenase) was “Not Active”.
In the case of Cc1ncc([N+](=O)[O-])n1CCO [METRONIDAZOLE], the IC50 [1] is reported as “Not Active”, the IC50 [2] is reported as “Not Active” and the Ki [2] is reported as “Not Active”. For the same compound, the IC50 [3] was “Not Active”, the IC50 [4] was “Not Active” and the Ki [4] was “Not Active”. The IC50 [5] was “Not Active”, the Ki [5] was “Not Active” and the IC50 [6] was “Not Active”. For the same compound, the Ki [6] was “Not Active”, the IC50 [7] was “Not Active” and the IC50 (Interstitial collagenase) was “Not Active”.
With CC(C)(C(=O)c1cccnc1)c1cccnc1 [METYRAPONE] the IC50 [1] was “Not Active”, the IC50 [2] was “Not Active” and the Ki [2] was “Not Active”. For the same compound, the IC50 [3] was “Not Active”, the IC50 [4] was “Not Active” and the Ki [4] was “Not Active”. For the same compound, the IC50 [5] was “Not Active”, the Ki [5] was “Not Active” and the IC50 [6] was “Not Active”. For the same compound, the Ki [6] was “Not Active”, the IC50 [7] was “Not Active” and the IC50 (Interstitial collagenase) was “Not Active”.
